This note sets out measurements from patent publication US10053453B2, “Compounds and their use as BACE inhibitors” (AstraZeneca AB, priority 2014, dated 2018).

Where two headings read alike, the source gives them in different places.

One test addresses T1, Human BACE1 (Homo sapiens, UniProt P56817).
T1 construct: the soluble part of the human β-Secretase1 (AA1-AA460) was cloned using the BACE1(1-460)-(AVT)-Fc-pGEN-IRES-neo mammalian expression vector; AVT linker (C); made in house
Kind of test: Diluted TR-FRET assay. In kind it is biochemical. The following applies: 50 times less enzyme, 6.5 h reaction time at r.t.; read-out: IC50 BACE1 (dil. TR-FRET). The protocol:
(§1) The β-secretase enzyme used in the TR-FRET was prepared as follows:
(§2) Human BACE1: the cDNA for the soluble part of the human β-Secretase1 (AA1-AA460) was cloned using the BACE1(1-460)-(AVT)-Fc-pGEN-IRES-neo mammalian expression vector. The gene was fused to the Fe domain of IgG1 (affinity tag) and stably cloned into HEK 293 cells. […]
A multidrop Combi was used for the liquid handling. Enzyme (7 μL) was added to the compound plate (containing 0.8 μL of compound in dimethylsulphoxide). The plate was incubated for 10 minutes. […] The reaction was stopped with the addition of Stop solution (5.5 μL, NaOAC, pH 9). Fluorescence was measured on a Pherastar plate reader using HTRF module. […] 5 reference inhibitors with different affinities were used at all screen occasions in dose response.
Background: In TR-FRET formats the signal depends on donor and acceptor labels being close together.

In another test the target is T2, Human BACE2 (Homo sapiens, UniProt Q9Y5Z0).
T2 construct: the soluble part of the human β-Secretase2 (AA1-AA473) was cloned using BACE2(1-473)-(AVT)-Fc-pDEST12.2 mammalian expression vector; AVT linker (C); made in house
T2 sequence (Q9Y5Z0 21-473): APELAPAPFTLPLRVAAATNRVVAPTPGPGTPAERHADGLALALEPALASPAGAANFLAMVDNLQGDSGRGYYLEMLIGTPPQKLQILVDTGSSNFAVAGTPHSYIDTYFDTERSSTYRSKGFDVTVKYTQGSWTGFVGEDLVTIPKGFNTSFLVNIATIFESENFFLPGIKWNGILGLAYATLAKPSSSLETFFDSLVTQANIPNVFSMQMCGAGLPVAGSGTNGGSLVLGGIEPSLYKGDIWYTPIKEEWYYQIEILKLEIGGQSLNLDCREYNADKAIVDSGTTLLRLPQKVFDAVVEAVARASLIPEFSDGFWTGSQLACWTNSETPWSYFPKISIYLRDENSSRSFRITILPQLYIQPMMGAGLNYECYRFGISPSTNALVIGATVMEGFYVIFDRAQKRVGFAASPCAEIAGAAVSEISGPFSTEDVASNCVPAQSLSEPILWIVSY
Briefly: TR-FRET assay. Type of test: biochemical. The following applies: enzyme 2.7 μg/mL, substrate 100 nM, pH4.5. Here is the method:
as §1, §2
A multidrop Combi was used for the liquid handling. Enzyme (7 μL) was added to the compound plate (containing 0.8 μL of compound in dimethylsulphoxide). The plate was incubated for 10 minutes. Substrate (8 μL) was then added, and the reaction proceeded for 17 minutes at r.t. The reaction was stopped with the addition of Stop solution (5.5 μL, NaOAC, pH 9). Fluorescence was measured on a Pherastar plate reader using HTRF module. […] 5 reference inhibitors with different affinities were used at all screen occasions in dose response.

In the next test the test system is SH-SY5Y cells. Kind of test: sAPPβ release assay.
Setting [1] is: Homo sapiens, SH-SY5Y, read-out: IC50 Cell (sAPPβ release, nM), SH-SY5Y cells, compounds incubated 16-17 h.
[2] abbreviates: Homo sapiens, SH-SY5Y, read-out: IC50 Cell (sAPPβ release, nM).

T1 sequence (P56817 22-460): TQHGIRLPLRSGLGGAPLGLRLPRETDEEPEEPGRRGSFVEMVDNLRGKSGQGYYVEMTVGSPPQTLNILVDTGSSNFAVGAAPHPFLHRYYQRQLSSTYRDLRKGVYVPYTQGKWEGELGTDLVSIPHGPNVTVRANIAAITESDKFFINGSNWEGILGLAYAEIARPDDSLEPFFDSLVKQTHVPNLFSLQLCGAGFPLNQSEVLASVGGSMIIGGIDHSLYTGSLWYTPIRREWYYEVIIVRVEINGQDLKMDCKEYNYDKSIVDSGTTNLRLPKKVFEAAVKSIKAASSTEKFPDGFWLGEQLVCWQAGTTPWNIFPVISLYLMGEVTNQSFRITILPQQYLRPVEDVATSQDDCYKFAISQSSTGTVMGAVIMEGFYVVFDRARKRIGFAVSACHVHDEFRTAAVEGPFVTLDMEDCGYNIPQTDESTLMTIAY

One may read the IC50 as the point on the concentration scale where inhibition reaches its midpoint. On to `COc1cc(C#N)cc(-c2ccc3c(c2)C2(COC(N)=N2)C(N2CCOCC2)C3)c1` (centres unmarked) [Compound 100, 3-(2′-amino-2-morpholino-2,3-dihydro-5′H-spiro[indene-1,4′-oxazol]-6-yl)-5-methoxybenzonitrile], for which the IC50 on Human BACE1 is above 5000 nM; at Human BACE2, 1370 nM; in the test with SH-SY5Y cells (setting [1]), 2160 nM.

Regarding `[2H]C1([2H])OC(N)=N[C@]12c1cc(-c3ccnnc3)ccc1C[C@@]21CC[C@H](OC)[C@@H](C)C1` [Compound 115, {(1S,1′R,3S,4S)-4-methoxy-3-methyl-6′-(pyridazin-4-yl)-3′H,5″H-dispiro[cyclohexane-1,2′-indene-1′,4″-oxazol]-5″,5″-d2-2″-amine}], the IC50 on Human BACE1 came out at 346 nM; on Human BACE2, 2220 nM; in the test on SH-SY5Y cells (setting [1]) it was 13 nM.

Consider `[2H]C([2H])([2H])O[C@@H]1CC[C@]2(Cc3ccc(-c4cncc(C#N)c4)cc3[C@]23N=C(N)OC3([2H])[2H])C[C@H]1C` [Compound 108, {(1R,1′R,3R,4R)-4-(methoxy-d3)-3-methyl-6′-(5-cyanopyridin-3-yl)-3′H,5″H-dispiro[cyclohexane-1,2′-indene-1′,4″-oxazol]-5″,5″-d2-2″-amine}], for which the values for the IC50 at Human BACE1, on Human BACE2 and in the test on SH-SY5Y cells (setting [1]) were 56 nM, 58 nM and 1.5 nM, respectively.

Regarding `[2H]C1([2H])OC(N)=N[C@]12c1cc(-c3cncc(C)c3)ccc1C[C@@]21CC[C@H](OC)[C@@H](C)C1` [Compound 28], the IC50 is 67 nM at Human BACE1, 255 nM on Human BACE2 and 1.6 nM with SH-SY5Y cells (setting [1]).

Turning to `[2H]C1([2H])CC2(N=C(N)O1)c1cc(-c3cncnc3)ccc1C[C@]21CC[C@@H](OC)CC1` (some centres unmarked) [Compound 82, (1r,4r)-4-methoxy-6′-(pyrimidin-5-yl)-5″,6″-dihydro-3′H-dispiro[cyclohexane-1,2′-indene-1′,4″-[1,3]oxazin]-6″,6″-d2-2″-amine], the IC50 on Human BACE1 came to 138 nM; at Human BACE2, 1790 nM; in the test with SH-SY5Y cells (setting [1]) it was 23 nM.

Take `C[C@@H]1CC(C2Cc3ccc(-c4cncnc4)cc3C23COC(N)=N3)C[C@H](C)O1` (stereo partly drawn) [Compound 97, 2-((2R,6S)-2,6-dimethyltetrahydro-2H-pyran-4-yl)-6-(pyrimidin-5-yl)-2,3-dihydro-5′H-spiro[indene-1,4′-oxazol]-2′-amine]: the IC50 at Human BACE1 is above 5000 nM; at Human BACE2 it was above 5000 nM; in the test with SH-SY5Y cells (setting [1]), 1420 nM.

With `[2H]C1([2H])OC(N)=N[C@]12c1cc(-c3cncc(C(F)(F)F)c3)ccc1C[C@@]21CC[C@H](OC)[C@@H](C)C1` [Compound 26], the IC50 on Human BACE1 is 19.6 nM; against Human BACE2, 78.4 nM; in the test on SH-SY5Y cells (setting [1]) it was 2.6 nM.

On to `[2H]C1([2H])OC(N)=NC12c1cc(/C=N/OCC)ccc1C[C@]21CC[C@@H](OC)CC1` (some centres unmarked) [Compound 56, (E)-2″-amino-4-methoxy-3′H,5″H-dispiro[cyclohexane-1,2′-indene-1′,4″-oxazole]-5″,5″-d2-6′-carbaldehyde O-ethyl oxime], for which the IC50 at Human BACE1 came to 1630 nM; at Human BACE2, 3240 nM; in the test on SH-SY5Y cells (setting [1]), 57 nM.

For the compound `CO[C@H]1[C@H](C)C[C@@]2(Cc3ccc(-c4cncc(C#N)c4)cc3[C@@]23COC(N)=N3)C[C@@H]1C` [Compound 31, 5-((1r,3R,4r,5S)-2″-amino-4-methoxy-3,5-dimethyl-3′H,5″H-dispiro[cyclohexane-1,2′-indene-1′,4″-oxazol]-6′-yl)nicotinonitrile], the values for the IC50 at Human BACE1, at Human BACE2 and in the test on SH-SY5Y cells (setting [1]) were 24.3 nM, 90.8 nM and 2.4 nM, respectively.

With `[2H]C1([2H])OC(N)=NC12c1cc(-c3cc(F)cc(F)c3)ccc1C[C@@]21CC[C@H](OC)[C@@H](C)C1` (stereo partly drawn) [Compound 110, {(1S,3S,4S)-4-methoxy-3-methyl-6′-(3,5-difluorophenyl)-3′H,5″H-dispiro[cyclohexane-1,2′-indene-1′,4″-oxazol]-5″,5″-d2-2″-amine}], the results for the IC50 at Human BACE1, against Human BACE2 and with SH-SY5Y cells (setting [1]) were 67 nM, 96 nM and 10 nM, respectively.

In the case of `[2H]C1([2H])OC(N)=NC12c1cc(CCC(C)C)ccc1C[C@@]21C[C@@H](C)[C@H](OC)[C@@H](C)C1` (stereo partly drawn) [Compound 43, (1r,3R,4r,5S)-6′-isopentyl-4-methoxy-3,5-dimethyl-3′H,5″H-dispiro[cyclohexane-1,2′-indene-1′,4″-oxazol]-5″,5″-d2-2″-amine], the results for the 50% inhibitory concentration (IC50) at Human BACE1, against Human BACE2 and in the test on SH-SY5Y cells (setting [1]) were 13.6 nM, 194 nM and 7.5 nM, respectively.

As for `[2H]C([2H])([2H])O[C@@H]1CC[C@]2(Cc3ccc(-c4cc(Cl)cnc4F)cc3[C@]23N=C(N)OC3([2H])[2H])C[C@H]1C` [Compound 106, {(1R,1′R,3R,4R)-4-(methoxy-d3)-3-methyl-6′-(2-fluoro-5-chloropyridin-3-yl)-3′H,5″H-dispiro[cyclohexane-1,2′-indene-1′,4″-oxazol]-5″,5″-d2-2″-amine}], the IC50 on Human BACE1 is 49 nM; on Human BACE2, 80 nM; in the test on SH-SY5Y cells (setting [1]), 2.8 nM.

With `CC#Cc1cncc(-c2ccc3c(c2)C2(COC(N)=N2)[C@]2(CC[C@H](OC)CC2)C3)c1` (some centres unmarked) [Compound 15, (1r,4r)-4-methoxy-6′-(5-(prop-1-yn-1-yl)pyridin-3-yl)-3′H,5″H-dispiro[cyclohexane-1,2′-indene-1′,4″-oxazol]-2″-amine], the IC50 on Human BACE1 was 16 nM; on Human BACE2, 23 nM; in the test on SH-SY5Y cells (setting [1]) it was 1.1 nM.

Regarding `[2H]C1([2H])OC(N)=N[C@]12c1cc(-c3cc(C#N)cc(OC)c3)ccc1C[C@]21CC[C@@H](OC)[C@H](C)C1` [Compound 24, 3-((1R,1′R,3R,4R)-2″-amino-4-methoxy-3-methyl-3′H,5″H-dispiro[cyclohexane-1,2′-indene-1′,4″-oxazol]-6′-yl-5″,5″-d2)-5-methoxybenzonitrile], the figures for the IC50 on Human BACE1, on Human BACE2 and with SH-SY5Y cells (setting [1]) were 18 nM, 18 nM and 3.2 nM, respectively.

Regarding `[2H]C1([2H])OC(N)=N[C@]12c1cc(-c3cc(C#N)cc(OC)c3)ccc1C[C@@]21CC[C@H](OC)[C@@H](C)C1` [Compound 23, 3-((1S,1′R,3S,4S)-2″-amino-4-methoxy-3-methyl-3′H,5″H-dispiro[cyclohexane-1,2′-indene-1′,4″-oxazol]-6′-yl-5″,5″-d2)-5-methoxybenzonitrile], the IC50 on Human BACE1 came out at 7.3 nM; against Human BACE2 it was 21.4 nM; in the test with SH-SY5Y cells (setting [1]), 1.5 nM.

`CO[C@H]1CC[C@]2(CC1)Cc1ccc(-c3cncnc3)cc1[C@@]21COC(N)=N1` [Compound 47, (1r,1′R,4R)-4-methoxy-6′-(pyrimidin-5-yl)-3′H,5″H-dispiro[cyclohexane-1,2′-indene-1′,4″-oxazol]-2″-amine]: the IC50 on Human BACE1 is 152 nM; in the test on SH-SY5Y cells (setting [2]) it was 9.1 nM.

Turning to `[2H]C1([2H])OC(N)=N[C@]12c1cc(-c3cncnc3)ccc1C[C@]21CC[C@@H](OC)CC1` [Compound 118, {(1r,1′R,4R)-4-methoxy-6′-(pyrimidin-5-yl)-3′H,5″H-dispiro[cyclohexane-1,2′-indene-1′,4″-oxazol]-5″,5″-d2-2″-amine}], the 50% inhibitory concentration (IC50) on Human BACE1 stood at 287 nM; in the test with SH-SY5Y cells (setting [2]), 6 nM.

As for `[2H]C1([2H])OC(N)=NC12c1cc(-c3cc(Cl)cc(C#N)c3)ccc1C[C@@]21C[C@@H](C)[C@H](OC)[C@@H](C)C1` (stereo partly drawn) [Compound 52, 3-((1r,3R,4r,5S)-2″-amino-4-methoxy-3,5-dimethyl-3′H,5″H-dispiro[cyclohexane-1,2′-indene-1′,4″-oxazol]-6′-yl-5″,5″-d2)-5-chlorobenzonitrile], the IC50 at Human BACE1 was 4.7 nM; with SH-SY5Y cells (read-out: IC50 Cell (sAPPβ release), SH-SY5Y cells, compounds incubated 16-17 h) it was 4.3 nM.

On to `[2H]C1([2H])OC(N)=N[C@]12c1cc(-c3cccnc3)ccc1C[C@]21CC[C@@H](OC)CC1` [Compound 117, {(1r,1′R,4R)-4-methoxy-6′-(pyrimidin-3-yl)-3′H,5″H-dispiro[cyclohexane-1,2′-indene-1′,4″-oxazol]-5″,5″-d2-2″-amine}], for which the IC50 at Human BACE1 is 341 nM; in the test on SH-SY5Y cells (setting [2]) it was 7 nM.
